ChEMBL document CHEMBL3217452, “Design, synthesis, and structureactivity relationships of 1,3,4-oxadiazol-2(3H)-ones as novel FAAH inhibitors” (Medchemcomm, 2011)

Experiments:
Mus musculus [1] = test: Inhibition of FAAH in mouse liver at 30 mg/kg, po after 1 hr; type: functional; conditions: values are per cent of control
Mus musculus [2] = test: Inhibition of FAAH in mouse brain at 30 mg/kg, po after 1 hr; type: functional; conditions: values are per cent of control
[3] = biological target: T1, Fatty-acid amide hydrolase 1 (Homo sapiens, UniProt O00519); test: Inhibition of FAAH (unknown origin)
T1 sequence (O00519 whole entry): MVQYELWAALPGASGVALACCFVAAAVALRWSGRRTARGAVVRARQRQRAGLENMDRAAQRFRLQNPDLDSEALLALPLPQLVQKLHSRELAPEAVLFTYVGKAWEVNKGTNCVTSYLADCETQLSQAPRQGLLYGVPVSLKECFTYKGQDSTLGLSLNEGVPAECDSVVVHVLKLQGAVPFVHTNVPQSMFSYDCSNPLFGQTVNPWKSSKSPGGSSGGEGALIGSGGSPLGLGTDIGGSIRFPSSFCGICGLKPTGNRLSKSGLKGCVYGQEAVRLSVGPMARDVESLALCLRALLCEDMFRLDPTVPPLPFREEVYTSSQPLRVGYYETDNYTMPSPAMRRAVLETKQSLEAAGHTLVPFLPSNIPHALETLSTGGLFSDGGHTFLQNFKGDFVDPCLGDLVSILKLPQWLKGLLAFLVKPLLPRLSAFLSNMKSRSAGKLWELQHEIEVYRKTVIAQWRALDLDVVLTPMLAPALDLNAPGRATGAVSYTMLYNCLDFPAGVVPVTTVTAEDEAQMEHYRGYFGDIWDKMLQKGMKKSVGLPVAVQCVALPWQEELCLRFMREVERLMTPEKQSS

[4] = biological target: T2, Fatty-acid amide hydrolase 1 (Rattus norvegicus) (UniProt P97612); test: Inhibition of FAAH in rat brain homogenates using [3H]-anandamide as substrate assessed as formation of [3H]-ethanolamine at 10 uM relative to control; type: tissue-based; conditions: values are per cent of control
T2 sequence (whole entry): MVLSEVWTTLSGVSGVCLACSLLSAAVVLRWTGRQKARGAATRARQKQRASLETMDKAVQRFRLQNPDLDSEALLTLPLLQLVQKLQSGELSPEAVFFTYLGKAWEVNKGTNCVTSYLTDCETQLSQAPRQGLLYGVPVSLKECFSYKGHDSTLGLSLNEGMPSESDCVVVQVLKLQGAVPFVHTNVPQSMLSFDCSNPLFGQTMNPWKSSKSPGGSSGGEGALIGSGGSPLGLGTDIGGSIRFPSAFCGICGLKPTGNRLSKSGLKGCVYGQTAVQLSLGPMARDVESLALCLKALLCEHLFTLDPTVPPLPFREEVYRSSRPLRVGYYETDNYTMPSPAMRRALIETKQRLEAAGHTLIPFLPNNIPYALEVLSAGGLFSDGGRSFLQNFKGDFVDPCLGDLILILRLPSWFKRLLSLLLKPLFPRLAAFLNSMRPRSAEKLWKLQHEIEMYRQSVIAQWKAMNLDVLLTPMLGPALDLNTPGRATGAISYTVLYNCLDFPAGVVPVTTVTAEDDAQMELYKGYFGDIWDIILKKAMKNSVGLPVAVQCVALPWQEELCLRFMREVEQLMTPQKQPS

Mus musculus [5] = test: Inhibition of FAAH in mouse brain at 30 mg/kg, po after 8 hrs; type: functional; conditions: values are per cent of control
Mus musculus [6] = test: Inhibition of FAAH in mouse brain at 30 mg/kg, po after 4 hrs; type: functional; conditions: values are per cent of control
Mus musculus [7] = test: Inhibition of FAAH in mouse brain at 30 mg/kg, po after 24 hrs; type: functional; conditions: values are per cent of control
Mus musculus [8] = test: Inhibition of FAAH in mouse liver at 30 mg/kg, po after 24 hrs; type: functional; conditions: values are per cent of control
Mus musculus [9] = test: Inhibition of FAAH in mouse liver at 30 mg/kg, po after 8 hrs; type: functional; conditions: values are per cent of control
Mus musculus [10] = test: Inhibition of FAAH in mouse liver at 30 mg/kg, po after 4 hrs; type: functional; conditions: values are per cent of control
Mus musculus [11] = test: Inhibition of FAAH in mouse brain at 10 mg/kg, po after 4 hrs; type: functional; conditions: values are per cent of control
Mus musculus [12] = test: Inhibition of FAAH in mouse brain at 10 mg/kg, po after 8 hrs; type: functional; conditions: values are per cent of control
Mus musculus [13] = test: Inhibition of FAAH in mouse brain at 10 mg/kg, po after 1 hr; type: functional; conditions: values are per cent of control
Mus musculus [14] = test: Inhibition of FAAH in mouse liver at 10 mg/kg, po after 24 hrs; type: functional; conditions: values are per cent of control
Mus musculus [15] = test: Inhibition of FAAH in mouse brain at 10 mg/kg, po after 24 hrs; type: functional; conditions: values are per cent of control
Mus musculus [16] = test: Inhibition of FAAH in mouse liver at 10 mg/kg, po after 8 hrs; type: functional; conditions: values are per cent of control
Mus musculus [17] = test: Inhibition of FAAH in mouse liver at 10 mg/kg, po after 4 hrs; type: functional; conditions: values are per cent of control
Mus musculus [18] = test: Inhibition of FAAH in mouse liver at 10 mg/kg, po after 1 hr; type: functional; conditions: values are per cent of control

O=c1oc(Oc2ccc(Cl)cc2)nn1-c1ccccc1
residual activity at 30 mg/kg (Mus musculus [1]): 81% | residual activity at 30 mg/kg (Mus musculus [2]): 110%

O=c1oc(Oc2ccc(Cl)cc2)nn1-c1ccc(O)cc1
residual activity at 30 mg/kg (Mus musculus [1]): 20% | residual activity at 30 mg/kg (Mus musculus [2]): 38%

COc1nn(-c2ccc(Oc3ccccc3)cc2)c(=O)o1
IC50 [3]: 6.1 nM

COc1nn(-c2cccc(Cl)c2)c(=O)o1
residual activity [4]: 5%

O=c1oc(Oc2ccccc2)nn1-c1ccc(F)cc1F
residual activity at 30 mg/kg (Mus musculus [1]): 65% | residual activity at 30 mg/kg (Mus musculus [2]): 86%

O=c1oc(Oc2ccc(F)cc2)nn1-c1ccc(O)cc1
residual activity at 30 mg/kg (Mus musculus [1]): 30% | residual activity at 30 mg/kg (Mus musculus [2]): 82%

COc1cc(Br)ccc1Oc1nn(-c2ccccc2)c(=O)o1
residual activity at 30 mg/kg (Mus musculus [1]): 83% | residual activity at 30 mg/kg (Mus musculus [2]): 101%

O=c1oc(Oc2ccccc2)nn1-c1cccc(O)c1
residual activity at 30 mg/kg (Mus musculus [1]): 33% | residual activity at 30 mg/kg (Mus musculus [2]): 95%

O=c1oc(Oc2ccc(F)cc2F)nn1-c1ccccc1
residual activity at 30 mg/kg (Mus musculus [1]): 39% | residual activity at 30 mg/kg (Mus musculus [2]): 94%

O=c1oc(Oc2ccc(F)cc2F)nn1-c1ccc(O)cc1
residual activity at 30 mg/kg (Mus musculus [1]): 12% | residual activity at 30 mg/kg (Mus musculus [2]): 86%

O=c1oc(-c2ccccc2)nn1-c1ccccc1
residual activity [4]: 110%

O=c1oc(Oc2ccc(F)cc2)nn1-c1cccc(O)c1
residual activity at 30 mg/kg (Mus musculus [1]): 24% | residual activity at 30 mg/kg (Mus musculus [2]): 99%

O=c1oc(Oc2ccccc2)nn1-c1ccccc1F
residual activity at 30 mg/kg (Mus musculus [1]): 72%

O=c1oc(Cc2ccccc2)nn1-c1ccccc1
residual activity [4]: 97%

O=c1oc(Oc2ccc(Cl)cc2)nn1-c1ccc(O)cc1F
residual activity at 30 mg/kg (Mus musculus [5]): 57% | residual activity at 30 mg/kg (Mus musculus [1]): 4% | residual activity at 30 mg/kg (Mus musculus [2]): 64% | residual activity at 30 mg/kg (Mus musculus [6]): 34% | residual activity at 30 mg/kg (Mus musculus [7]): 80% | residual activity at 30 mg/kg (Mus musculus [8]): 79% | residual activity at 30 mg/kg (Mus musculus [9]): 7%

O=c1oc(Oc2ccc([N+](=O)[O-])cc2)nn1-c1ccc(O)cc1
residual activity at 30 mg/kg (Mus musculus [1]): 45% | residual activity at 30 mg/kg (Mus musculus [2]): 96%

O=c1oc(N2CCOCC2)nn1-c1cccc(Cl)c1
residual activity [4]: 104%

O=c1oc(Oc2ccc(Cl)cc2Cl)nn1-c1ccc(O)cc1
residual activity at 30 mg/kg (Mus musculus [5]): 52% | residual activity at 30 mg/kg (Mus musculus [1]): 9% | residual activity at 30 mg/kg (Mus musculus [2]): 59% | residual activity at 30 mg/kg (Mus musculus [6]): 72% | residual activity at 30 mg/kg (Mus musculus [7]): 99% | residual activity at 30 mg/kg (Mus musculus [10]): 18% | residual activity at 30 mg/kg (Mus musculus [8]): 103% | residual activity at 30 mg/kg (Mus musculus [9]): 11%

O=c1oc(OCc2ccccc2)nn1Cc1ccccc1
residual activity [4]: 86%

O=c1oc(Oc2ccccc2)nn1-c1ccc(O)cc1
residual activity at 30 mg/kg (Mus musculus [1]): 46% | residual activity at 30 mg/kg (Mus musculus [2]): 97%

O=c1oc(Oc2ccccc2F)nn1-c1ccc(O)cc1
residual activity at 30 mg/kg (Mus musculus [1]): 44% | residual activity at 30 mg/kg (Mus musculus [2]): 94%

COc1ccc(Oc2nn(-c3ccccc3)c(=O)o2)cc1
residual activity at 30 mg/kg (Mus musculus [1]): 94% | residual activity at 30 mg/kg (Mus musculus [2]): 108%

O=c1oc(Oc2ccc(Cl)cc2)nn1-c1ccc(O)c(O)c1
residual activity at 30 mg/kg (Mus musculus [1]): 5% | residual activity at 10 mg/kg (Mus musculus [11]): 90% | residual activity at 30 mg/kg (Mus musculus [2]): 83% | residual activity at 10 mg/kg (Mus musculus [12]): 96% | residual activity at 10 mg/kg (Mus musculus [13]): 99% | residual activity at 10 mg/kg (Mus musculus [14]): 91% | residual activity at 10 mg/kg (Mus musculus [15]): 102% | residual activity at 10 mg/kg (Mus musculus [16]): 38% | residual activity at 10 mg/kg (Mus musculus [17]): 17% | residual activity at 10 mg/kg (Mus musculus [18]): 10%

O=C(c1ccccc1)c1nn(-c2ccccc2)c(=O)o1
residual activity [4]: 84%

O=c1oc(Oc2ccc(F)cc2F)nn1-c1ccc(O)c(O)c1
residual activity at 30 mg/kg (Mus musculus [1]): 4% | residual activity at 10 mg/kg (Mus musculus [11]): 100% | residual activity at 30 mg/kg (Mus musculus [2]): 66% | residual activity at 10 mg/kg (Mus musculus [12]): 103% | residual activity at 10 mg/kg (Mus musculus [13]): 102% | residual activity at 10 mg/kg (Mus musculus [14]): 79% | residual activity at 10 mg/kg (Mus musculus [15]): 104% | residual activity at 10 mg/kg (Mus musculus [16]): 27% | residual activity at 10 mg/kg (Mus musculus [17]): 18% | residual activity at 10 mg/kg (Mus musculus [18]): 6%

O=c1oc(Oc2ccc(F)cc2F)nn1-c1cccc(O)c1
residual activity at 30 mg/kg (Mus musculus [1]): 12% | residual activity at 30 mg/kg (Mus musculus [2]): 94%

O=c1oc(Oc2ccc(Cl)cc2)nn1-c1cccc(O)c1
residual activity at 30 mg/kg (Mus musculus [1]): 10% | residual activity at 30 mg/kg (Mus musculus [2]): 100%
